Test results reported in patent US11337970B2, “Inhibitors of indoleamine 2,3-dioxygenase and methods of their use” (BRISTOL-MYERS SQUIBB COMPANY, priority 2016, dated 2022).

Legend:
human IDO1 = molecular target: T1, human IDO1 (Homo sapiens, UniProt P14902); assay: IDO inhibition assay in HEK293 cells stably expressing human IDO1 (kynurenine, Ehrlich reagent); type: cell-based; conditions: 20 hours incubation, absorbance at 490 nm, read-out: IDO1 HEK Human IC50
T1 construct: expressed in transfected cells
T1 sequence (P14902 whole entry): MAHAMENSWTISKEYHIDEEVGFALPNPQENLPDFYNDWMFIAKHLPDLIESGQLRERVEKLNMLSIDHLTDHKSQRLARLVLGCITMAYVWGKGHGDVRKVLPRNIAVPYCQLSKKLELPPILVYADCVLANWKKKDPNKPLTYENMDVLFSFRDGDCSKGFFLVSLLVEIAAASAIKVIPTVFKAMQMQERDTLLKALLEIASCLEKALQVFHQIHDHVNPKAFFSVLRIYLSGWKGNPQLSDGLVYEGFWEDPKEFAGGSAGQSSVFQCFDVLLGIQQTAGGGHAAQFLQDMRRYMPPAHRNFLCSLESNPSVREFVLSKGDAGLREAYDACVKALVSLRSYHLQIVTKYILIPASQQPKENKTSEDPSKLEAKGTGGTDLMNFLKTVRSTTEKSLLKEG
Protocol: HEK293 cells were transfected with a pCDNA-based mammalian expression vector harboring human IDO1 cDNA (NM 002164.2) by electroporation. They were cultured in medium (DMEM with 10% FBS) containing 1 mg/ml G418 for two weeks. Clones of HEK293 cells that stably expressed human IDO1 protein were selected and expanded for IDO inhibition assay.
The human IDO1/HEK293 cells were seeded at 10,000 cells per 50 μL per well with RPMI/phenol red free media contains 10% FBS in a 384-well black wall clear bottom tissue culture plate (Matrix Technologies LLC) 100 nL of certain concentration of compound was then added to each well using ECHO liquid handling systems. The cells were incubated for 20 hours in 37° C. incubator with 5% CO2.
The compound treatments were stopped by adding trichloroacetic acid (Sigma-Aldrich) to a final concentration at 0.2%. The cell plate was further incubated at 50° C. for 30 minute. The equal volume supernatant (20 μL) and 0.2% (w/v) Ehrlich reagent (4-dimethylaminobenzaldehyde, Sigma-Aldrich) in glacial acetic acid were mixed in a new clear bottom 384-well plate. This plate was then incubated at room temperature for 30 minute. The absorbance at 490 nm was measured on Envision plate reader.
Compound IC50 values were calculated using the counts of 500 nM of a reference standard treatment as one hundred percent inhibition, and counts of no compound but DMSO treatment as zero percent inhibition.

[1] = molecular target: T2, indoleamine 2,3-dioxygenase (IDO) (Homo sapiens, UniProt P14902); assay: HeLa cell-based indoleamine 2,3-dioxygenase (IDO) assay (kynurenine production); conditions: HeLa cells, IFNγ 25 ng/mL, 48 hour incubation, absorbance at 480 nm
T2 construct: host or cells: HeLa cells stimulated with IFNγ (25 ng/mL)
T2 sequence (P14902 whole entry): as above
Protocol: Assessment of inhibitor activity in HeLa cell-based indoleamine 2,3-dioxygenase (IDO) assay:
HeLa (ATCC® CCL-2) cells were obtained from the ATCC® and cultured in Dulbecco's Modified Eagle Medium supplemented with 4.5 g/L glucose, […] (#10-013-CV, Corning), 2 mM L-alanyl-L-glutamine dipeptide (#35050-061, Gibco), 100U/mL penicillin, 100 μg/mL streptomycin (#SV30010, HyClone) and 10% fetal bovine serum (#SH30071.03 HyClone). Cells were maintained in a humidified incubator at 37° C. in 5% CO2.
IDO activity was assessed as a function of kynurenine production as follows: HeLa cells were seeded in a 96-well culture plate at a density of 5,000 cells/well and allowed to equilibrate overnight. After 24 hours, the media was aspirated and replaced with media containing IFNγ (#285-IF/CF, R&D Systems) at a final concentration of 25 ng/mL. A serial dilution of each test compound was added to the cells in a total volume of 200 μL of culture medium. After a further 48 hour incubation, 170 μL of supernatant was transferred from each well to a fresh 96-well plate. 12.1 μL of 6.1N trichloroacetic acid (#T0699, Sigma-Aldrich) was added to each well and mixed, followed by incubation at 65° C. for 20 minutes to hydrolyze N-formylkynurenine, the product of indoleamine 2,3-dioxygenase, to kynurenine. The reaction mixture was then centrifuged for 10 mins at 500×g to sediment the precipitate. 100 μL of the supernatant was transferred from each well to afresh 96-well plate. 100 μl of 2% (w/v) p-dimethylaminobenzaldehyde (#15647-7, Sigma-Aldrich) in acetic acid (#A6283, Sigma-Aldrich) was added to each well mixed and incubated at room temperature for 20 mins. Kynurenine concentrations were determined by measuring absorbance at 480 nm and calibrating against an L-kynurenine (#K8625, Sigma-Aldrich) standard curve using a SPECTRAMAX® M2e microplate reader (Molecular Devices). The percentage activity at each inhibitor concentration was determined and IC50 values assessed using nonlinear regression.

Row | IC50 (human IDO1) [nM] | IC50 [1] [nM] | Compound
1 | 54.1 | – | CC(c1nc2ccc(Cl)cc2[nH]1)C1CCC(c2ccnc3ccccc23)CC1 (single isomer, unassigned) [Example 16-1, (±)-4-(4-(1-(6-chloro-1H-benzo[d]imidazol-2-yl)ethyl)cyclohexyl)quinoline]
2 | 4.5 | 5.7 | CC(c1nc2ccc(Cl)cc2[nH]1)C1CCC(c2ccnc3ccccc23)CC1 (single isomer, unassigned) [Example 16-2, (±)-4-(4-(1-(6-chloro-1H-benzo[d]imidazol-2-yl)ethyl)cyclohexyl)quinoline]
3 | 6.6 | 9.5 | CC[C@H](c1nc2ccc(Cl)cc2[nH]1)[C@H]1CC[C@@H](c2ccnc3ccc(F)cc32)CC1 (single isomer, unassigned) [Example 15-4, 4-(4-(1-(6-chloro-1H-benzo[d]imidazol-2-yl)propyl)cyclohexyl)-6-fluoroquinoline]
4 | 0.7 | 3.5 | CC[C@H](c1nc2ccc(Cl)cc2[nH]1)[C@H]1CC[C@@H](c2ccnc3ccc(F)cc32)CC1 (single isomer, unassigned) [Example 15-3, 4-(4-(1-(6-chloro-1H-benzo[d]imidazol-2-yl)propyl)cyclohexyl)-6-fluoroquinoline]
5 | 3.4 | 8.9 | CCC(c1nc2ccc(Cl)cc2[nH]1)[C@H]1CC[C@H](Oc2ccnc3ccccc23)CC1 (single isomer, unassigned) [Example 13-2, 4-(((trans)-4-(1-(6-chloro-1H-benzo[d]imidazol-2-yl)propyl)cyclohexyl)oxy)quinoline]
6 | 40.6 | – | CC[C@H](c1nc2ccc(Cl)cc2[nH]1)[C@H]1CC[C@@H](c2ccnc3ccc(F)cc32)CC1 (single isomer, unassigned) [Example 15-1, 4-(4-(1-(6-chloro-1H-benzo[d]imidazol-2-yl)propyl)cyclohexyl)-6-fluoroquinoline]
7 | 110 | – | CC[C@H](c1nc2ccc(Cl)cc2[nH]1)[C@H]1CC[C@@H](c2ccnc3ccc(F)cc32)CC1 (single isomer, unassigned) [Example 15-2, 4-(4-(1-(6-chloro-1H-benzo[d]imidazol-2-yl)propyl)cyclohexyl)-6-fluoroquinoline]
8 | – | 4.5 | CCC(c1nc2ncc(Cl)cc2[nH]1)[C@H]1CC[C@H](Oc2ccnc3ccccc23)CC1 (single isomer, unassigned) [Example 20-2]

Continued, compound first:

Row | Compound | IC50 (human IDO1) [nM] | IC50 [1] [nM]
9 | C[C@@H](Nc1nc2ccccc2s1)[C@H]1CC[C@@H](c2ccnc3ccc(F)cc32)CC1 [Example 10] | 194 | –
10 | C[C@@H](c1nc2ccc(Cl)cc2[nH]1)[C@H]1CC[C@@H](c2ccnc3ccc(F)cc32)CC1 [Example 2, 4-((cis)-4-((R)-1-(6-chloro-1H-benzo[d]imidazol-2-yl)ethyl)cyclohexyl)-6-fluoroquinoline] | 1.8 | 1.1
11 | C[C@@H](Nc1nc2ccc(Cl)cc2o1)[C@H]1CC[C@@H](c2ccnc3ccc(F)cc32)CC1 [Example 11, 6-chloro-N-((R)-1-((cis)-4-(6-fluoroquinolin-4-yl)cyclohexyl)ethyl)benzo[d]oxazol-2-amine] | 40.9 | 40.9
12 | CCC(c1nc2ccc(Cl)cc2[nH]1)[C@H]1CC[C@@H](Oc2ccnc3ccccc23)CC1 (stereo partly drawn) [Example 14, 4-(((cis)-4-(1-(6-chloro-1H-benzo[d]imidazol-2-yl)propyl)cyclohexyl)oxy)quinoline] | 322 | –
13 | C[C@@H](c1nc2ccccc2[nH]1)[C@H]1CC[C@@H](c2ccnc3ccc(F)cc32)CC1 [Example 1, 4-((cis)-4-((R)-1-(1H-benzo[d]imidazol-2-yl)ethyl)cyclohexyl)-6-fluoroquinoline] | 5.2 | 4.7
14 | C[C@@H](c1nc2ccc(F)cc2[nH]1)[C@H]1CC[C@@H](c2ccnc3ccc(F)cc32)CC1 [Example 3, 6-fluoro-4-((cis)-4-((R)-1-(6-fluoro-1H-benzo[d]imidazol-2-yl)ethyl)cyclohexyl)quinoline] | 2.7 | 1.5
15 | C[C@@H](c1nc2cnccc2[nH]1)[C@H]1CC[C@@H](c2ccnc3ccc(F)cc32)CC1 [Example 5, 4-((cis)-4-((R)-1-(1H-imidazo[4,5-c]pyridin-2-yl)ethyl)cyclohexyl)-6-fluoroquinoline] | 105 | –
16 | COc1ccc2nc(N[C@H](C)[C@H]3CC[C@@H](c4ccnc5ccc(F)cc54)CC3)[nH]c2c1 [Example 9, N-((R)-1-((cis)-4-(6-fluoroquinolin-4-yl)cyclohexyl)ethyl)-6-methoxy-1H-benzo[d]imidazol-2-amine] | 263 | –
17 | C[C@@H](c1nc2ncccc2[nH]1)[C@H]1CC[C@@H](c2ccnc3ccc(F)cc32)CC1 [Example 7, 4-((cis)-4-((R)-1-(1H-imidazo[4,5-b]pyridin-2-yl)ethyl)cyclohexyl)-6-fluoroquinoline] | 23.2 | 30.1
18 | (±)-Cis and trans-6-chloro-2-(1-(4-(2-(trifluoromethyl)pyridin-4-yl)cyclohexyl)ethyl)-1H-benzo[d]imidazole [Example 38] | 62.1 | –
19 | CCC(c1nc2ccc(Cl)cc2[nH]1)[C@H]1CC[C@@H](Oc2ccnc3ccccc23)CC1 (stereo partly shown) [Example 51, 4-(((1s,4s)-4-(1-(6-chloro-1H-benzo[d]imidazol-2-yl)propyl)cyclohexyl)oxy)quinoline] | 1060 | –
20 | C=CC[C@@H](c1nc2ccc(Cl)cc2[nH]1)[C@H]1CC[C@@H](c2ccnc3ccc(F)cc32)CC1 [Example 32, 4-((1S,4s)-4-((R)-1-(6-chloro-1H-benzo[d]imidazol-2-yl)but-3-en-1-yl)cyclohexyl)-6-fluoroquinoline] | 2 | 2.8
21 | C[C@@H](c1nc2cc3c(cc2[nH]1)OCO3)[C@H]1CC[C@@H](c2ccnc3ccc(F)cc32)CC1 [Example 4, 6-((R)-1-((cis)-4-(6-fluoroquinolin-4-yl)cyclohexyl)ethyl)-5H-[1,3]dioxolo[4′,5′:4,5]benzo[1,2-d]imidazole] | 1.5 | –
22 | C[C@@H](Nc1nc2ccccc2[nH]1)[C@H]1CC[C@@H](c2ccnc3ccc(F)cc32)CC1 [Example 12, N-((R)-1-((cis)-4-(6-fluoroquinolin-4-yl)cyclohexyl)ethyl)-1H-benzo[d]imidazol-2-amine] | 139 | –
23 | C[C@@H](c1nc2cc(F)c(F)cc2[nH]1)[C@H]1CC[C@@H](c2ccnc3ccc(F)cc32)CC1 [Example 40] | – | 2.7
24 | (+/−)-Cis and trans-6-chloro-2-(1-(4-(2-(trifluoromethyl)pyridin-4-yl)cyclohexyl)propyl)-1H-benzo[d]imidazole [Example 36] | 26.1 | –
25 | C[C@@H](Nc1nc2ccc(Cl)cc2s1)[C@H]1CC[C@@H](c2ccnc3ccc(F)cc32)CC1 [Example 8, 6-chloro-N—((R)-1-((cis)-4-(6-fluoroquinolin-4-yl)cyclohexyl)ethyl)benzo[d]thiazol-2-amine] | 730 | –
26 | CCC(c1nc2ccc(Cl)cc2[nH]1)[C@H]1CC[C@H](Oc2ccnc3ccccc23)CC1 (mixture of isomers) [Example 13, 4-(((trans)-4-(1-(6-chloro-1H-benzo[d]imidazol-2-yl)propyl)cyclohexyl)oxy)quinoline] | 3.4 | –
27 | CCC(c1nc2ccc(Cl)cc2[nH]1)[C@H]1CC[C@@H](Oc2ccnc3ccccc23)CC1 (stereo partly shown) [Example 52, 4-(((1s,4s)-4-(1-(6-chloro-1H-benzo[d]imidazol-2-yl)propyl)cyclohexyl)oxy)quinoline] | 697 | –
